The values that follow are results of earlier work, collected in patent publication EP3125915B1, “PROCESS FOR PREPARING A POWDERED MIXTURE OF BORNEOL AND PLANT PROTEINS TO BE USED AS DIETARY OR FOOD SUPPLEMENT, AND RELATED DIETARY OR FOOD SUPPLEMENT” (priority 2014, dated 2015).

For data set [1] the following is noted: with borneol.
Experiment in data set [2]: not given
This is another data set of the same source.

The conditions of data set [3]: with borneol. This is another data set of the same source.
Experiment in data set [4]: not given
The source holds these as a separate data set.

The conditions of data set [5]: with borneol. This is another data set of the same source.
For data set [6] the following is noted: with borneol. This is another data set of the same source.

Like-named read-outs stand apart in the source and are kept apart here.

Take `COC(=O)C1=CO[C@@H](O[C@@H]2O[C@H](CO)[C@@H](O)[C@H](O)[C@H]2O)[C@@H]2C(CO)=CC[C@H]12` [geniposide]: the “brain delivery of geniposide” value (borneol high dose increasing from 2.0 g/kg to 4.0 g/kg) is listed as “decreased”. Besides, the “delivery of geniposide in the rat brain” value (borneol low dose range of 0.05-2.0 g/kg) is recorded as “increases”. Further, the permeability of geniposide result in data set [1] (cortex and striatum regions) is recorded as “no change”; in data set [1] (hippocampus and hypothalamus regions) it was “increase”.
Regarding `OCc1ccc(O[C@@H]2O[C@H](CO)[C@@H](O)[C@H](O)[C@H]2O)cc1` [gastrodin], the entries for the “peak time of gastrodin in the plasma” value in data set [2] (administration of gastrodin alone) and in data set [2] (gastrodin co-administrated with borneol) were 30 min and 5 to 15 min, respectively. In addition, the “bioavailability of gastrodigenin in the brain was increased by” value in data set [2] (gastrodin co-administrated with borneol, compared with gastrodin alone) was 33.6-108.8%.
As to `NC(=O)N1c2ccccc2C=Cc2ccccc21` [carbamazepine], the bioavailability of carbamazepine entry in data set [3] is “significantly improve”.
For `Cc1nc(C)c(C)nc1C.O=P(O)(O)O` [TMPP, tetramethylpyrazine phosphate], the “oral bioavailability of TMPP in brain tissue, times increased than that without borneol” value in data set [4] (oral borneol 15 mg kg^-1) is 1.12 times; in data set [4] (oral borneol 30 mg kg^-1), 1.62 times; in data set [4] (oral borneol 90 mg kg^-1), 1.93 times. Besides, the “oral bioavailability of TMPP in mice plasma, times increased than that without borneol” value in data set [4] (oral borneol 15 mg kg^-1) is recorded as 1.52 times; in data set [4] (oral borneol 30 mg kg^-1), 2.21 times; in data set [4] (oral borneol 90 mg kg^-1) it was 2.95 times.
`O=c1c(O)c(-c2ccc(O)c(O)c2)oc2cc(O)cc(O)c12` [quercetin]: the “absorption of quercetin in mice brain tissue” value in data set [5] is “improves”.
As to `Cc1ncc(CNC(=O)N(CCCl)N=O)c(N)n1` [nimustine], the “bioavailability of nimustine in the CSF” value in data set [6] is on record as “increase”.
